Values after ≈ are worked out from the molar mass of the structure shown. Square brackets hold non-standard residues; d marks the D form. Peptide text beside a SMILES is read from it.
Assays:
MDR S. aureus = assay: microbe, parasite or virus in culture; conditions: CLSI broth microdilution; CAMHB with 50 mg/L Ca2+, 10 mg/L Mg2+; 5 × 10^5 CFU/ml; 18 h 37 °C; triplicate; strain KCCM 40510
Source text: (§1) MDR Pseudomonas aeruginosa (CCARM 2180) was purchased from the Culture Collection of Antimicrobial Resistance Microbes (Seoul, Republic of Korea). MDR Acinetobacter baumannii (ATCC BAA-1605) and MDR Enterococcus faecalis (ATCC 51575) were purchased from the American Type Culture Collection (Manassas, VA, USA). MDR Staphylococcus aureus (KCCM 40510) was purchased from the Korean Culture Center of Microorganisms (Seoul, Republic of Korea). S. aureus (KCTC 1621) was purchased from the Korean Collection for Type Cultures. A. baumannii (KCCM 40203) was purchased from the Korean Culture Center of Microorganisms (Seoul, Republic of Korea).
(§2) To assess antimicrobial activity, the MIC50 and MIC90 were measured using broth microdilution following CLSI guidelines. […] Each experiment was performed in triplicate. Meropenem (Sigma, Darmstadt, Germany) and colistin were used as control antibiotics. Cation-adjusted Mueller–Hinton broth (CAMHB) (Becton, Dickinson and Company, Franklin Lakes, USA) with supplied calcium (50 mg/L) and magnesium (10 mg/L) was used for the CLSI-test condition. Bacteria in midlog phase and peptides were separately diluted in CAMHB. The bacteria and peptide solutions were then mixed in 96-well polyethylene plates (SPL, Gyeonggi-do, Korea) and incubated for 18 h at 37 °C. The final concentration for bacteria was 5 × 10^5 CFU/ml. […] The MIC was defined to be the lowest concentration of peptide without visible turbidity by comparing with control antibiotics with the unaided eye. […] Each experiment was performed in triplicate. MICs in albumin and acetic acid solutions were measured using the same protocol but with 0.2% bovine serum albumin (Bovogen, Keilor, Australia), 0.01% acetic acid (Merck, New Jersey, USA), and CAMHB with both calcium and magnesium. In addition, MICs used in the antibiotic resistance acquisition test, the outer–inner membrane permeation test, and the transmembrane potential test and for FE-SEM were individually determined. The final bacterial concentrations used were as follows: for resistance acquisition, optical density (OD) 0.01; for outer–inner membrane permeability assays (LB), OD 0.1; for the transmembrane potential test, 1 × 10^8 CFU/ml (OD 0.171); […]. Inhibitory activity unidentifiable by direct observation was determined by counting the CFUs. Each experiment was performed at least twice.

MDR E. faecalis = assay: microbe, parasite or virus in culture; conditions: CLSI broth microdilution; CAMHB with 50 mg/L Ca2+, 10 mg/L Mg2+; 5 × 10^5 CFU/ml; 18 h 37 °C; triplicate; strain ATCC 51575
Source text: as §1, §2

MDR A. baumannii = assay: microbe, parasite or virus in culture; conditions: CLSI broth microdilution; CAMHB with 50 mg/L Ca2+, 10 mg/L Mg2+; 5 × 10^5 CFU/ml; 18 h 37 °C; triplicate; strain ATCC BAA-1605
Source text: as §1, §2

human red blood cells = assay: Hemolytic activity; assay type: cell-based; conditions: red cells of human, 18 h
Experimental: Human red blood cells (Zenbio, North Carolina, USA) and peptides were separately diluted in PBS (blood concentration, 8%). The blood cell and peptide solutions were then mixed in 96-well polyethylene plates (SPL, Gyeonggi-do, Korea) and incubated for 18 h at 37 °C. The final concentration of human red blood cells was 4%, while peptide concentrations were 100 μM, 50 μM, 25 μM, 12.5 μM, 6.25 μM, 3.13 μM, 1.56 μM, and 0.78 μM. After incubation, the plates were centrifuged at 1000 × g for 5 min, and the supernatants were transferred to 96-well polyethylene plates. Hemolysis levels were determined by measuring the absorbance at 540 nm with a SpectraMax plate spectrophotometer (Molecular Devices, California, USA). Control samples were treated with 1% Triton X-100 (for 100% hemolysis) or solution with 0 μM peptide (for 0% hemolysis) and melittin (for positive control). Each experiment was performed in triplicate.

MDR P. aeruginosa = assay: microbe, parasite or virus in culture; conditions: CLSI broth microdilution; CAMHB with 50 mg/L Ca2+, 10 mg/L Mg2+; 5 × 10^5 CFU/ml; 18 h 37 °C; no visible turbidity; triplicate; strain CCARM 2180
Source text: as §1, §2

| Structure (SMILES) | Minimum inhibitory concentrations, MDR S. aureus (MDR S. aureus) [µM] | Minimum inhibitory concentrations, MDR E. faecalis (MDR E. faecalis) [µM] | Minimum inhibitory concentrations, MDR A. baumannii (MDR A. baumannii) [µM] | Hemolysis percent, 25 μM (human red blood cells) [%] | Hemolysis percent, 50 μM (human red blood cells) [%] | Hemolysis percent, 100 μM (human red blood cells) [%] | Minimum inhibitory concentrations, MDR P. aeruginosa (MDR P. aeruginosa) [µM] |
| --- | --- | --- | --- | --- | --- | --- | --- |
| CC[C@@H](C)[C@@H](NC(=O)[C@@H](Cc1c[nH]c2ccccc12)NC(=O)[C@H](NC(=O)[C@@H](CC(C)C)NC(=O)[C@H](N)Cc1c[nH]c2ccccc12)C(C)C)C(=O)N[C@H](Cc1c[nH]c2ccccc12)C(=O)N[C@H](CCCNC(=N)N)C(=O)N[C@H](CCCNC(=N)N)C(N)=O [WCopW32] (H-[dW][dL][dV][dW][dI][dW][dR][dR]-NH2) | 0.63 (≈ 0.765 µg/mL) | 0.63 (≈ 0.765 µg/mL) | 2.5 (≈ 3.03 µg/mL) | 1.66 ± 0.11 | 2.95 ± 0.21 | 4.53 ±0.01 |  |
| CC[C@@H](C)[C@@H](NC(=O)[C@@H](Cc1c[nH]c2ccccc12)NC(=O)[C@@H](CC(C)C)NC(=O)[C@H](N)Cc1c[nH]c2ccccc12)C(=O)N[C@H](Cc1c[nH]c2ccccc12)C(=O)N[C@H](CCCNC(=N)N)C(=O)N[C@H](CCCNC(=N)N)C(=O)N[C@H](CCCNC(=N)N)C(N)=O [WCopW41] (H-[dW][dL][dW][dI][dW][dR][dR][dR]-NH2) |  | 1.25 (≈ 1.59 µg/mL) | 2.5 (≈ 3.18 µg/mL) | 0.01 ±0.01 | 0.04 ± 0.02 | 0.42 ±0.06 |  |
| CC[C@@H](C)[C@@H](NC(=O)[C@@H](Cc1c[nH]c2ccccc12)NC(=O)[C@@H](CCCNC(=N)N)NC(=O)[C@@H](CCCNC(=N)N)NC(=O)[C@H](N)CCCNC(=N)N)C(=O)N[C@H](Cc1c[nH]c2ccccc12)C(=O)N[C@@H](C(=O)N[C@@H](C(=O)N[C@H](Cc1c[nH]c2ccccc12)C(N)=O)[C@H](C)CC)[C@H](C)CC [WCopW60] (H-[dR][dR][dR][dW][dI][dW][dI][dI][dW]-NH2) | 0.63 (≈ 0.872 µg/mL) |  | 1.25 (≈ 1.73 µg/mL) | 15.51 ± 0.64 | 15.14 ± 3.22 | 15.17 ± 0.19 | 5 (≈ 6.92 µg/mL) |
| CC[C@@H](C)[C@@H](NC(=O)[C@H](N)Cc1c[nH]c2ccccc12)C(=O)N[C@@H](C(=O)N[C@H](Cc1c[nH]c2ccccc12)C(=O)N[C@@H](C(=O)N[C@H](Cc1c[nH]c2ccccc12)C(=O)N[C@H](CCCNC(=N)N)C(=O)N[C@H](CCCNC(=N)N)C(=O)N[C@H](CCCNC(=N)N)C(N)=O)[C@H](C)CC)[C@H](C)CC [WCopW61] (H-[dW][dI][dI][dW][dI][dW][dR][dR][dR]-NH2) | 0.63 (≈ 0.872 µg/mL) |  | 1.25 (≈ 1.73 µg/mL) | 6.90 ± 0.03 | 8.91 ± 0.75 | 11.6 ±0.99 | 5 (≈ 6.92 µg/mL) |
| CC[C@@H](C)[C@@H](NC(=O)[C@@H](Cc1c[nH]c2ccccc12)NC(=O)[C@@H](CCC(=O)O)NC(=O)[C@@H](CC(C)C)NC(=O)[C@H](N)Cc1c[nH]c2ccccc12)C(=O)NCC(=O)N[C@H](CC(C)C)C(=O)N[C@H](CCCNC(=N)N)C(=O)N[C@H](CCCCN)C(=O)N[C@H](CCCCN)C(=O)N[C@H](CCCNC(=N)N)C(N)=O [WCopWE] (H-[dW][dL][dE][dW][dI]G[dL][dR][dK][dK][dR]-NH2) | >20 | >20 | 10 (≈ 14.8 µg/mL) |  |  |  | >20 |

Reference: paper PMC9643456, “Matching amino acids membrane preference profile to improve activity of antimicrobial peptides” (Communications Biology, 2022)
